According to PubChem BioAssay (NCI):
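Growth conditions: 96-well plates. Treatment: test compound, 48 hours, 5 concentrations. Analysis: linear interpolation between bracketing concentrations; unreached endpoints set to highest concentration. GI50 = concentration required for 50% inhibition of growth. Definition used: TGI = concentration required for complete inhibition of growth.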

Legend:
Experiment in all cases: inhibition of tumour cell growth, NCI panel, 48 h
T-47D breast = system: T-47D breast
MCF7 breast = system: MCF7 breast
MDA-MB-435 = system: MDA-MB-435
NCI/ADR-RES ovarian = system: NCI/ADR-RES ovarian
DMS 114 small cell lung = system: DMS 114 small cell lung
KM20L2 colon = system: KM20L2 colon
XF 498 CNS = system: XF 498 CNS
HOP-18 NSCLC = system: HOP-18 NSCLC

Row | SMILES | GI50 (T-47D breast) [µM] | TGI (T-47D breast) [µM] | GI50 (MCF7 breast) [µM] | TGI (MCF7 breast) [µM] | GI50 (MDA-MB-435) [µM] | TGI (MDA-MB-435) [µM] | TGI (NCI/ADR-RES ovarian) [µM] | GI50 (NCI/ADR-RES ovarian) [µM] | TGI (DMS 114 small cell lung) [µM] | TGI (KM20L2 colon) [µM] | TGI (XF 498 CNS) [µM] | TGI (HOP-18 NSCLC) [µM]
1 | CC(=O)Nc1ccc(S(=O)(=O)NNC(=O)c2cccnc2Nc2ccc(Cl)cc2)cc1 | 6.28 | > 100 | 4.34 | > 100 | 3.2 | > 100 |  |  |  |  |  | 
2 | C=C1C(=O)O[C@H]2C[C@@]3(C)[C@H](O)CCC(=C)[C@@H]3[C@@H](OC(C)=O)[C@H]12 |  | 29.5 |  | 9.84 |  | 44.4 | 76.8 |  |  |  |  | 
3 | O=C1CCCN1CC#CCN1CCCC1 | > 100 | > 100 | > 100 | > 100 | > 100 | > 100 | > 100 | > 100 |  |  |  | 
4 | CC(C)Oc1cc(O)c2c(c1)OCC=C2CCC(=O)O |  | > 100 |  | 40.2 |  | 66 | > 100 |  |  |  |  | 
5 | COC(=O)CCCCCN=Cc1c(O)c(O)c(C(C)C)c2cc(C)c(-c3c(C)cc4c(C(C)C)c(O)c(O)c(C=NCCCCCC(=O)OC)c4c3O)c(O)c12 | 1.25 | 29.4 | 1.04 | 5.83 | 1.82 | > 32.5 | > 32.5 | 9.04 |  |  |  | 
6 | COc1ccc(Cn2c(Cl)c(/C=C3/C(=O)Nc4ccccc43)c3cc(OC)c(C)cc32)cc1 | 25 | > 100 | 5.87 | > 100 | 2.06 | 6.08 | 4.77 | 2 |  |  |  | 
7 | Cc1nc(C(N)=S)sc1C(=O)C/C(=N/N)C(=O)Nc1cccc(Cl)c1C |  | > 100 |  | > 100 |  | > 100 | > 100 |  |  |  |  | 
8 | COc1ccc(-c2cn[nH]c2-c2cc(OC)c3c(c2)OCCO3)cc1 |  |  | 0.061 | 32.6 | 0.0266 | 0.0977 | 41.5 | 0.0549 |  |  |  | 
9 | COC(=O)C1=C(C(=O)OC)SC(=C(Cl)C(=S)Sc2ccccc2N)S1 | 39.6 | > 100 | 16.7 | 34 | 29.3 | > 100 | 62.1 | 25.5 |  |  |  | 
10 | Cc1cc2c(=O)c3ccccc3[nH]c2c(C(=O)O)c1C |  |  |  |  |  |  |  |  | > 100 | > 100 | > 100 | 
11 | O=C1Nc2cccc3cc(NCC(O)CCl)cc1c23 (centres undefined) |  | > 100 |  | > 100 |  | > 100 | > 100 |  |  |  |  | 
12 | C/C(=N\NC(N)=S)c1nc2ccc(Cl)cc2[nH]1 | 4.48 | > 50 | 1.64 | > 50 | 2.95 | 24.6 | > 50 | 1.21 |  |  |  | 
13 | COc1ccc(Cl)cc1Nc1nc(C(F)(F)F)ccc1C(=O)N/N=C/c1cc(OC)c(OC)c(OC)c1 | 1.39 | 8.03 | 1.52 | 7.46 | 2.41 | 7.72 | 21.6 | 3.35 |  |  |  | 
14 | CCCCCCN(CCCCCC)CC(O)c1ccc2c3c(cccc13)CC2 (centres undefined) | 3.28 | 16.6 | 6.01 | 20.8 | 3.11 | 15.2 | 26.2 | 10.6 |  |  |  | 
15 | COc1ccc(CN2c3ccccc3CCc3ccccc32)cc1F | 0.394 | > 100 | 0.352 | > 100 |  |  | > 100 | 0.456 |  |  |  | 
16 | Cc1cc(=O)oc2cc(O)c(CN(C)CC(=O)O)cc12 |  | > 100 |  | > 100 |  | > 100 | > 100 |  |  |  |  | 
17 | C[C@]12CC[C@@H]3c4ccc(O)cc4C(O)C[C@H]3[C@@H]1CCC2=O (some centres undefined) | > 100 | > 100 | > 100 | > 100 | > 100 | > 100 | > 100 | > 100 |  |  |  | 
18 | CC(=O)O[C@@H]1C2C(=O)OC(=O)C2C2CCC[C@]23O[C@H]13 (some centres undefined) |  |  |  |  |  |  |  |  | > 100 | > 100 |  | > 100
19 | CN1C(=O)C(Cl)(C(Cl)(Cl)S(=O)(=O)O)C(=O)c2ccccc21 (centres undefined) |  |  |  |  |  |  |  |  |  | 40.6 |  | 
20 | Cc1c2ccc(N(C)c3ccnc(Nc4cccc(S(N)(=O)=O)c4)n3)cc2nn1C | 5.27 | 21.8 | 8.95 | > 25 | 6.74 | > 22.3 | > 25 | > 19.7 |  |  |  | 
21 | O=[N+]([O-])c1nccn1COCCBr |  |  |  |  |  |  |  |  | > 100 | > 100 | > 100 | 
22 | C=C(C=O)CCCC(C)[C@@H]1CCC23CC12CCC1[C@@]2(C)CCC(OC(C)=O)C(C)(C)C2CC(OC2OC(COC(C)=O)C(O)C(O)C2O)[C@]13C (some centres undefined) |  |  |  |  |  |  |  |  |  | 12.8 |  | 16.1
23 | NC(=O)c1ccc(C2C3=C(CCCC3=O)OC3=C2C(=O)c2ccccc2C3=O)cc1 (centres undefined) | 0.272 | 0.968 | 0.233 | 0.824 | 0.179 | 0.339 | 22.5 | 2.94 |  |  |  | 
24 | Cn1cc(CNCC2CCN(c3ncc(C(=O)NO)cn3)CC2)c2ccccc21 | < 0.01 | 0.543 | < 0.01 | 2.53 | 0.012 | 0.123 | 5.59 | 0.107 |  |  |  | 
25 | Cc1ccc(NC(=O)Cn2c(Br)nc3c2c(=O)n(C)c(=O)n3C)cc1 | 3.05 | 14 | 3.91 | 18.3 | 9.32 | 21.2 | 29.3 | 9.75 |  |  |  | 
26 | Nc1ccc(S(=O)(=O)NCc2nccs2)cc1 |  | 71.8 |  | 61.4 |  | 38.8 | 62.7 |  |  |  |  | 
27 | O=c1[nH]c(=O)n(C2OC3COC2C3O)cc1F (centres undefined) |  |  |  |  |  |  |  |  |  | > 100 | > 100 | > 100
28 | C[N+]1(C)C/C(=C\c2ccncc2)C(=O)/C(=C/c2ccncc2)C1 |  |  |  |  |  |  |  |  | > 100 | > 100 |  | > 100
29 | CCOc1c(Cl)cc(CNC(C)C(O)c2ccccc2)cc1OC (centres undefined) | 16.5 | 46.5 | 17.8 | 45.2 | 16.2 | 32.3 | 59.1 | 20.2 |  |  |  | 
